Laboratory results as given in PubChem BioAssay (NCI).
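Each compound was tested at five concentrations against cells in 96-well plates for 48 hours. GI50 = concentration required for 50% inhibition of growth. TGI marks complete inhibition of growth.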

Assays:
Assay in all cases: NCI anticancer screen, dose series, 48 h
SNB-78 CNS = test system: SNB-78 CNS
XF 498 CNS = test system: XF 498 CNS
RXF-631 renal = test system: RXF-631 renal
DMS 114 small cell lung = test system: DMS 114 small cell lung
DMS 273 small cell lung = test system: DMS 273 small cell lung
DLD-1 colon = test system: DLD-1 colon
MDA-N = test system: MDA-N

For `Clc1cccc2c1OCC1C(c3ccccc3)=NN(c3ccccc3)C21` (centres undefined), the TGI (SNB-78 CNS) was > 100 µM, the TGI (XF 498 CNS) was > 100 µM and the TGI (RXF-631 renal) was > 100 µM. The TGI (DMS 114 small cell lung) was > 100 µM, the TGI (DMS 273 small cell lung) was > 100 µM and the TGI (DLD-1 colon) was > 100 µM.
For `Nc1nc(-c2cc(-c3cccc4ccccc34)nc(N)n2)cc(-c2cccc3ccccc23)n1`, the TGI (MDA-N) was > 100 µM.
`O=C(Sc1sc(=S)sc1SC(=O)c1ccccc1)c1ccccc1` was tested, and the TGI (SNB-78 CNS) was > 100 µM, the TGI (XF 498 CNS) was > 100 µM and the TGI (DMS 114 small cell lung) was > 100 µM. For the same molecule, the TGI (DMS 273 small cell lung) was > 100 µM.
In the case of `C/C=C1\CCC2c3[nH]c4ccccc4c3CCN2C1` (centres undefined), the TGI (SNB-78 CNS) was > 100 µM, the TGI (XF 498 CNS) was > 100 µM and the TGI (DMS 114 small cell lung) was > 100 µM. The TGI (DMS 273 small cell lung) was > 100 µM and the TGI (DLD-1 colon) was > 100 µM.
In the case of `Cc1cc2c(=O)[nH]c(N)nc2nc1C`, the TGI (MDA-N) was > 100 µM.
`Cc1cc2c(=O)cc(-c3ccc(F)cc3)oc2c(C(=O)O)c1C` was tested, and the TGI (SNB-78 CNS) was > 100 µM, the TGI (XF 498 CNS) was > 100 µM and the TGI (RXF-631 renal) was > 100 µM. For the same molecule, the TGI (DMS 114 small cell lung) was > 100 µM, the TGI (DMS 273 small cell lung) was > 100 µM and the TGI (DLD-1 colon) was > 100 µM.
Work on `NCCN1C(=O)c2ccccc2C1(O)c1ccc(Cl)cc1` (centres undefined) yielded a TGI (MDA-N) of 32.7 µM.
`CC/C(CC(=O)CCC(=O)Nc1ccc(C)c(C)c1)=N\NC(=O)C(N)=O` was tested, and the TGI (SNB-78 CNS) was > 100 µM, the TGI (XF 498 CNS) was > 100 µM and the TGI (DMS 114 small cell lung) was > 100 µM. For the same molecule, the TGI (DMS 273 small cell lung) was > 100 µM and the TGI (DLD-1 colon) was > 100 µM.
In the case of `CC12CC(Sc3ccccc3N1)c1ccccc1O2` (centres undefined), the TGI (SNB-78 CNS) was 42.6 µM, the TGI (XF 498 CNS) was 30.2 µM and the TGI (RXF-631 renal) was 28.4 µM. The TGI (DMS 114 small cell lung) was 29 µM, the TGI (DMS 273 small cell lung) was 30.2 µM and the TGI (DLD-1 colon) was 28.9 µM.
`CCN(CC)CCC(=O)/C=C/c1ccc(C)cc1` gave a TGI (SNB-78 CNS) of 79.3 µM, a TGI (XF 498 CNS) of 25.1 µM and a TGI (RXF-631 renal) of 35.1 µM. The TGI (DMS 114 small cell lung) was 24.4 µM, the TGI (DMS 273 small cell lung) was 25.5 µM and the TGI (DLD-1 colon) was 21.9 µM.
In the case of `C#CC(=O)OCC#CCOC(=O)C#C`, the TGI (MDA-N) was > 100 µM.
`Cc1ccc(NC(=O)/C(=N\NC(N)=O)c2c(O)c3ccccc3[nH]c2=O)cc1` was tested, and the TGI (MDA-N) was > 100 µM.
In the case of `O=c1cc(O)c2c(O)cc(O)cc2o1`, the TGI (MDA-N) was > 100 µM.
For `O=C1CCC2(c3ccccc3)Nc3ccc(Cl)cc3N12` (centres undefined), the TGI (SNB-78 CNS) was > 100 µM, the TGI (XF 498 CNS) was > 100 µM and the TGI (RXF-631 renal) was > 100 µM. For the same molecule, the TGI (DMS 114 small cell lung) was > 100 µM and the TGI (DLD-1 colon) was > 100 µM.
For `O=C(NC(=O)c1cc2cc(Br)cc(Br)c2oc1=O)Oc1ccccc1`, the TGI (SNB-78 CNS) was > 100 µM, the TGI (XF 498 CNS) was > 100 µM and the TGI (DMS 114 small cell lung) was > 100 µM. The TGI (DMS 273 small cell lung) was > 100 µM and the TGI (DLD-1 colon) was > 100 µM.
In the case of `NC(CO)C(=O)NCC(=O)O` (centres undefined), the TGI (MDA-N) was > 100 µM.
For `O=[N+]([O-])c1ccc(COc2cccc3cccnc23)cc1`, the TGI (SNB-78 CNS) was > 100 µM, the TGI (XF 498 CNS) was 67.5 µM and the TGI (RXF-631 renal) was 33.3 µM. It also gave a TGI (DMS 114 small cell lung) of 6.92 µM, a TGI (DMS 273 small cell lung) of 20.8 µM and a TGI (DLD-1 colon) of 71.2 µM.
For `COC[C@@H](N=CN1CCc2cc(OC)c(OC)cc2C1)C(C)(C)C`, the TGI (XF 498 CNS) was > 100 µM, the TGI (RXF-631 renal) was > 100 µM and the TGI (DMS 114 small cell lung) was > 100 µM. For the same molecule, the TGI (DLD-1 colon) was > 100 µM.
In the case of `Cc1ccc(C)c2c(N=Nc3ccccc3[N+](=O)[O-])c(O)[nH]c12`, the TGI (MDA-N) was > 100 µM.
Molecule `COc1cc2c(cc1O)C(c1cc(O)c(O)c(OC)c1)C(O)(C(=O)O)C(CO)C2O` (centres undefined) has a TGI (MDA-N) of 30.9 µM.
Work on `Cc1ccc(S(=O)(=O)SCc2ccccc2)cc1` yielded a TGI (SNB-78 CNS) of 30 µM, a TGI (XF 498 CNS) of 95.2 µM and a TGI (DMS 114 small cell lung) of 47.8 µM. For the same molecule, the TGI (DMS 273 small cell lung) was > 69.5 µM and the TGI (DLD-1 colon) was 21.7 µM.
In the case of `Cc1ccc2c(CC(=O)O)cc(=O)oc2c1`, the TGI (XF 498 CNS) was 9.18 µM, the TGI (DMS 114 small cell lung) was > 100 µM and the TGI (DMS 273 small cell lung) was > 100 µM. The TGI (DLD-1 colon) was > 100 µM.
For `Clc1ccc(C2=NOC3C4CCC(C4)C23)cc1` (centres undefined), the TGI (SNB-78 CNS) was > 100 µM, the TGI (DMS 273 small cell lung) was > 100 µM and the TGI (DLD-1 colon) was > 100 µM.
For `CCCC#CCOC(=O)c1cc([N+](=O)[O-])cc([N+](=O)[O-])c1`, the TGI (MDA-N) was > 100 µM.
Work on `Brc1ccc(C2SCc3nc4ccccc4n32)cc1` (centres undefined) yielded a TGI (SNB-78 CNS) of 22.5 µM, a TGI (XF 498 CNS) of 24.5 µM and a TGI (DLD-1 colon) of 22.3 µM.
In the case of `O=C(CC1C(=O)Nc2ccccc2S1(=O)=O)Nc1cccc(Cl)c1` (centres undefined), the TGI (SNB-78 CNS) was > 100 µM, the TGI (XF 498 CNS) was 41.5 µM and the TGI (RXF-631 renal) was 45.3 µM. For the same molecule, the TGI (DMS 114 small cell lung) was 30.6 µM, the TGI (DMS 273 small cell lung) was 29.4 µM and the TGI (DLD-1 colon) was 32.7 µM.
For `C[n+]1c(/C=C/c2ccc(/C=N/NC(=O)c3ccc(C(=O)N/N=C/c4ccc(/C=C/c5cn6ccccc6[n+]5C)cc4)cc3)cc2)cn2ccccc21`, the TGI (MDA-N) was > 100 µM.
In the case of `Oc1c2c(c(O)c3ccccc13)C1(N=N2)c2ccccc2Oc2ccccc21`, the TGI (MDA-N) was 21.8 µM.
With `COc1cc2ccc(CC(N)=O)cc2cc1OC` the TGI (SNB-78 CNS) was > 100 µM, the TGI (XF 498 CNS) was > 100 µM and the TGI (RXF-631 renal) was > 100 µM. The TGI (DMS 114 small cell lung) was > 100 µM and the TGI (DMS 273 small cell lung) was > 100 µM.
With `COC1=CC(=O)NCCN1` the TGI (SNB-78 CNS) was > 100 µM, the TGI (XF 498 CNS) was > 100 µM and the TGI (RXF-631 renal) was > 100 µM. The TGI (DMS 114 small cell lung) was > 100 µM, the TGI (DMS 273 small cell lung) was > 100 µM and the TGI (DLD-1 colon) was > 100 µM.
`CN1C(=O)C(=CN(C)c2ccccc2)C(=O)N(C)C1=O` was tested, and the TGI (SNB-78 CNS) was > 100 µM, the TGI (XF 498 CNS) was > 100 µM and the TGI (DMS 114 small cell lung) was > 100 µM. For the same molecule, the TGI (DMS 273 small cell lung) was > 100 µM and the TGI (DLD-1 colon) was > 100 µM.
`CC(=O)NC1=C(Sc2ccc(Cl)cc2)C(=O)c2ccccc2C1=O` showed a TGI (MDA-N) of 3.17 µM.
`O=S(=O)(NCCO)c1cc[c]([Sb](=[O])([OH])[OH])cc1` was tested, and the GI50 (MDA-N) was > 100 µM and the TGI (MDA-N) was > 100 µM.
Work on `Cc1cnc(SCCN2CCN(C)CC2)nc1-c1cc2ccccc2s1` yielded a TGI (SNB-78 CNS) of 32.5 µM, a TGI (DMS 114 small cell lung) of 20.5 µM and a TGI (DMS 273 small cell lung) of 18.1 µM. It also gave a TGI (DLD-1 colon) of 25.4 µM.
In the case of `COc1cc2c(cc1OC)[C@@H]([C@H](O)c1ccccc1)NCC2`, the TGI (SNB-78 CNS) was > 100 µM, the TGI (XF 498 CNS) was > 100 µM and the TGI (RXF-631 renal) was > 100 µM. For the same molecule, the TGI (DMS 114 small cell lung) was > 100 µM, the TGI (DMS 273 small cell lung) was > 100 µM and the TGI (DLD-1 colon) was > 100 µM.
`Cc1cc(NS(=O)(=O)c2ccc(Nc3c4ccccc4nc4c(C(=O)Nc5ccc(S(=O)(=O)N=C(N)N)cc5)ccc(Cl)c34)cc2)no1` gave a TGI (SNB-78 CNS) of 97.7 µM, a TGI (XF 498 CNS) of 90.9 µM and a TGI (DMS 114 small cell lung) of 68.9 µM. The TGI (DMS 273 small cell lung) was > 100 µM and the TGI (DLD-1 colon) was > 100 µM.
In the case of `COc1ccc2c(c1)CCN1C3=C(CCC3)C(=O)C[C@@H]21`, the TGI (SNB-78 CNS) was > 100 µM, the TGI (XF 498 CNS) was > 100 µM and the TGI (DMS 114 small cell lung) was > 100 µM. For the same molecule, the TGI (DMS 273 small cell lung) was > 100 µM.
